Among the test systems are HT29 colon; SK-MEL-5 melanoma; OVCAR-5 ovarian; SF-295 CNS; SK-OV-3 ovarian; CCRF-CEM leukemia; SK-MEL-28 melanoma; KM12 colon; HOP-62 NSCLC; HCT-15 colon; A549 NSCLC; DU-145 prostate; NCI/ADR-RES ovarian; 786-0 renal; TK-10 renal; SN12C renal.
Holding throughout (assay): inhibition of tumour cell growth, NCI panel, 48 h

The results in this text go back to PubChem BioAssay (NCI).

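All cell lines were grown in 96-well plates and treated with compound for 48 hours. TGI denotes the concentration required for complete inhibition of growth.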

Consider `CC(CC(=O)CO[C@H]1[C@H](O)[C@@H](O)[C@@H](O)[C@@H]2NC(=O)c3c(cc4c(c3O)OCO4)[C@H]21)OC1OC(CO)C(O)C(O)C1O` (stereo partly drawn), for which the TGI in the experiment on HT29 colon stood at 2.32 µM; with SK-MEL-5 melanoma, 1.48 µM; in the experiment with OVCAR-5 ovarian, 5.7 µM; in the experiment on SF-295 CNS, 5.65 µM; with SK-OV-3 ovarian it was 3.87 µM; with CCRF-CEM leukemia, 0.582 µM. Further, the TGI in the experiment on SK-MEL-28 melanoma worked out at 14.3 µM; in the experiment on KM12 colon, 1.77 µM; in the experiment with HOP-62 NSCLC it was 2.29 µM; in the experiment with HCT-15 colon it was 3.43 µM; in the experiment with A549 NSCLC, 9.23 µM; in the experiment on DU-145 prostate, 0.664 µM. Moreover, the TGI amounted to 3.97 µM with NCI/ADR-RES ovarian, 2.92 µM in the experiment on 786-0 renal, 1.55 µM in the experiment on TK-10 renal and 2.14 µM in the experiment on SN12C renal.
For `Cc1cccc(/C=N/NC(=S)NCc2ccccn2)n1`, the TGI with HT29 colon is > 100 µM; in the experiment on SK-MEL-5 melanoma it was 70.9 µM; with OVCAR-5 ovarian it was > 100 µM; in the experiment with SF-295 CNS, > 100 µM; in the experiment with SK-OV-3 ovarian, 97.7 µM; in the experiment on CCRF-CEM leukemia, > 100 µM. For the same compound, the TGI in the experiment with SK-MEL-28 melanoma was > 100 µM; in the experiment on KM12 colon, > 100 µM; with HOP-62 NSCLC it was > 78.6 µM; in the experiment on HCT-15 colon it was > 100 µM; with A549 NSCLC it was > 100 µM; with DU-145 prostate, > 100 µM. Besides, the TGI was > 75.4 µM in the experiment with NCI/ADR-RES ovarian, > 100 µM in the experiment with 786-0 renal, > 100 µM with TK-10 renal and > 100 µM with SN12C renal.
Take `CC(=O)Oc1c(C)cc(-c2cc(C)c(OC(C)=O)c(C)c2)cc1C`: the TGI in the experiment with HT29 colon was > 100 µM; with SK-MEL-5 melanoma, > 100 µM; with OVCAR-5 ovarian, > 100 µM; in the experiment on SF-295 CNS, 93.8 µM; in the experiment with SK-OV-3 ovarian, 38.4 µM; in the experiment on CCRF-CEM leukemia, > 100 µM. Further, the TGI in the experiment with SK-MEL-28 melanoma, with KM12 colon, in the experiment with HOP-62 NSCLC, in the experiment on HCT-15 colon, in the experiment with A549 NSCLC and with DU-145 prostate was > 100 µM each time. The TGI with NCI/ADR-RES ovarian was > 100 µM; in the experiment on 786-0 renal it was > 100 µM; in the experiment on TK-10 renal it was 91.6 µM; with SN12C renal, > 100 µM.
Take `Oc1c(C2=NNC(c3cccs3)C2)ccc2ccccc12` (stereo not drawn): the TGI is 40 µM in the experiment on HT29 colon; 56.4 µM with SK-MEL-5 melanoma; > 100 µM in the experiment with OVCAR-5 ovarian; 57.6 µM with SF-295 CNS; > 100 µM with SK-OV-3 ovarian; 37.4 µM in the experiment on CCRF-CEM leukemia. Further, the TGI was > 100 µM in the experiment on SK-MEL-28 melanoma; 36.2 µM in the experiment on KM12 colon; 99.4 µM in the experiment on HOP-62 NSCLC; > 100 µM with HCT-15 colon; > 100 µM in the experiment with A549 NSCLC; 61.7 µM in the experiment on DU-145 prostate. Also, the TGI in the experiment with NCI/ADR-RES ovarian was 82 µM; in the experiment with 786-0 renal it was > 100 µM; with TK-10 renal it was > 100 µM; in the experiment with SN12C renal, 38.1 µM.
Consider `Cc1ccc(S(=O)(=O)N2CCCSCCSCCCSCC2)cc1`, for which the TGI in the experiment on HT29 colon, in the experiment on SK-MEL-5 melanoma, in the experiment on OVCAR-5 ovarian, in the experiment with SF-295 CNS, in the experiment on SK-OV-3 ovarian and in the experiment with CCRF-CEM leukemia was > 100 µM throughout. Moreover, the TGI with SK-MEL-28 melanoma, in the experiment on KM12 colon, in the experiment with HOP-62 NSCLC, with HCT-15 colon, with A549 NSCLC and in the experiment with DU-145 prostate was > 100 µM in each case. Also, the TGI in the experiment with NCI/ADR-RES ovarian, in the experiment with 786-0 renal, in the experiment with TK-10 renal and in the experiment on SN12C renal was > 100 µM in each case.
Consider `OC1c2ccccc2[C@@H]2[C@H]1[C@@H](c1ccccc1)C1(Cc3ccccc3C1O)[C@H]2c1ccccc1` (stereo partly drawn), for which the TGI in the experiment on HT29 colon worked out at 6.87 µM; with SK-MEL-5 melanoma, 18.2 µM; with OVCAR-5 ovarian it was 23.2 µM; in the experiment on SF-295 CNS, 18.9 µM; with SK-OV-3 ovarian it was 23 µM; in the experiment on CCRF-CEM leukemia, 12.7 µM. In addition, the TGI with SK-MEL-28 melanoma turned out to be 22.1 µM; with KM12 colon it was 8.25 µM; in the experiment with HOP-62 NSCLC, 22.9 µM; with HCT-15 colon it was 15.1 µM; in the experiment on A549 NSCLC, 14.2 µM; in the experiment with DU-145 prostate, 22 µM. Further, the TGI was determined as 16.6 µM in the experiment on NCI/ADR-RES ovarian, 8.28 µM in the experiment on 786-0 renal, 29.7 µM in the experiment with TK-10 renal and 3.29 µM with SN12C renal.
In the case of `O=C1/C(=C\c2ccc([N+](=O)[O-])cc2)Sc2scc(-c3ccc(O)c(O)c3)[n+]21`, the TGI in the experiment on HT29 colon was determined as 15.7 µM; in the experiment on SK-MEL-5 melanoma, 13.4 µM; in the experiment with OVCAR-5 ovarian, 35.4 µM; with SF-295 CNS it was 31.8 µM; in the experiment with SK-OV-3 ovarian, 26.2 µM; with CCRF-CEM leukemia, 16.3 µM. Further, the TGI amounted to 25 µM in the experiment with SK-MEL-28 melanoma; 27.6 µM with KM12 colon; 27.5 µM in the experiment on HOP-62 NSCLC; 14.1 µM in the experiment on HCT-15 colon; 55.4 µM in the experiment with A549 NSCLC; 37.2 µM in the experiment with DU-145 prostate. In addition, the TGI in the experiment on NCI/ADR-RES ovarian worked out at 50.1 µM; with 786-0 renal, 22.5 µM; with TK-10 renal, 10.6 µM; in the experiment on SN12C renal, 50 µM.
`CC(C)Nc1[nH]c(C(=O)c2ccccc2)c(N)c1C(=S)Nc1ccccc1`: the TGI in the experiment with HT29 colon is 91.3 µM; in the experiment on SK-MEL-5 melanoma, 74.1 µM; in the experiment on OVCAR-5 ovarian it was > 100 µM; with SF-295 CNS it was > 100 µM; in the experiment with SK-OV-3 ovarian, > 100 µM; with CCRF-CEM leukemia, > 100 µM. Further, the TGI in the experiment with SK-MEL-28 melanoma is 35.1 µM; in the experiment with KM12 colon, > 100 µM; in the experiment on HOP-62 NSCLC, > 100 µM; with HCT-15 colon, > 100 µM; in the experiment with A549 NSCLC it was > 100 µM; in the experiment on DU-145 prostate, > 100 µM. Also, the TGI in the experiment with NCI/ADR-RES ovarian, in the experiment with 786-0 renal, with TK-10 renal and in the experiment on SN12C renal was > 100 µM in each case.
On to `CCC1(OC(=O)CN2CCN(CCO)CC2)C(=O)OCc2c1cc1n(c2=O)Cc2cc3ccccc3nc2-1` (stereo not drawn), for which the TGI in the experiment on HT29 colon is 8.85 µM; with SK-MEL-5 melanoma, 1.15 µM; in the experiment with OVCAR-5 ovarian, 7.6 µM; with SF-295 CNS it was 15.6 µM; with SK-OV-3 ovarian it was 14.7 µM; with CCRF-CEM leukemia, 0.451 µM. Moreover, the TGI in the experiment with SK-MEL-28 melanoma turned out to be 39.2 µM; in the experiment on KM12 colon it was 4.49 µM; with HOP-62 NSCLC, 4.55 µM; in the experiment with HCT-15 colon it was 26.2 µM; in the experiment on A549 NSCLC it was 29.5 µM; with DU-145 prostate, 2.24 µM. The TGI with NCI/ADR-RES ovarian is 7.99 µM; in the experiment with 786-0 renal, 2.53 µM; in the experiment on TK-10 renal, > 100 µM; in the experiment with SN12C renal, 29.8 µM.
On to `CCOC(=O)c1c(O)[nH]c(=O)c(CC)c1C`, for which the TGI in the experiment on HT29 colon, in the experiment on SK-MEL-5 melanoma, with OVCAR-5 ovarian, with SF-295 CNS, in the experiment on SK-OV-3 ovarian and with CCRF-CEM leukemia was > 100 µM in each case. Moreover, the TGI with SK-MEL-28 melanoma, in the experiment with KM12 colon, with HOP-62 NSCLC, with HCT-15 colon, in the experiment with A549 NSCLC and in the experiment with DU-145 prostate was > 100 µM each time. For the same compound, the TGI in the experiment with NCI/ADR-RES ovarian, in the experiment with 786-0 renal, in the experiment on TK-10 renal and in the experiment with SN12C renal was > 100 µM each time.
Consider `Nc1nc(Cl)c(C=O)c(NCC2(CO)CC(CCc3ccccc3)C2)n1` (stereo not drawn), for which the TGI in the experiment with HT29 colon is 27.7 µM; in the experiment on SK-MEL-5 melanoma it was 20.3 µM; with OVCAR-5 ovarian it was 33.3 µM; with SF-295 CNS it was 27 µM; with SK-OV-3 ovarian, 24.4 µM; with CCRF-CEM leukemia, 31.8 µM. Also, the TGI stood at 12.1 µM in the experiment with SK-MEL-28 melanoma; 28.5 µM in the experiment with KM12 colon; 28.6 µM with HOP-62 NSCLC; 13.8 µM with HCT-15 colon; 25.5 µM in the experiment on A549 NSCLC; 30.8 µM in the experiment on DU-145 prostate. The TGI with NCI/ADR-RES ovarian amounted to 47.6 µM; in the experiment with 786-0 renal, 69.5 µM; in the experiment with TK-10 renal, 62.4 µM; in the experiment with SN12C renal it was 19 µM.
As for `Cc1cc(C)c(S(=O)(=O)N[C@@H](/C=C(\Br)CO)C(C)C)c(C)c1`, the TGI with HT29 colon is > 100 µM; in the experiment on SK-MEL-5 melanoma it was 30.5 µM; in the experiment on OVCAR-5 ovarian, > 100 µM; with SF-295 CNS, > 100 µM; with SK-OV-3 ovarian it was > 100 µM; with CCRF-CEM leukemia it was 90.1 µM. The TGI in the experiment with SK-MEL-28 melanoma, in the experiment on KM12 colon, in the experiment on HOP-62 NSCLC, in the experiment on HCT-15 colon, with A549 NSCLC and in the experiment on DU-145 prostate was > 100 µM in each case. The TGI is > 100 µM in the experiment on NCI/ADR-RES ovarian, > 100 µM in the experiment with 786-0 renal, > 100 µM with TK-10 renal and 32 µM with SN12C renal.
On to `Cc1ccc(-c2sc(-c3ccc(C)cc3)c3c2C2CCC3C2)cc1`, for which the TGI in the experiment with HT29 colon, in the experiment with SK-MEL-5 melanoma, in the experiment on OVCAR-5 ovarian, in the experiment on SF-295 CNS, in the experiment on SK-OV-3 ovarian and with CCRF-CEM leukemia was > 50 µM throughout. Moreover, the TGI with SK-MEL-28 melanoma, in the experiment with KM12 colon, in the experiment on HOP-62 NSCLC, in the experiment on HCT-15 colon, with A549 NSCLC and in the experiment with DU-145 prostate was > 50 µM in each case. Besides, the TGI in the experiment on NCI/ADR-RES ovarian, in the experiment on 786-0 renal, in the experiment with TK-10 renal and in the experiment with SN12C renal was > 50 µM in each case.
